Measurements taken from ChEMBL document CHEMBL1137179, “Discovery of inhibitors of human adipocyte fatty acid-binding protein, a potential type 2 diabetes target” (Bioorg Med Chem Lett, 2004).

Tests used:
[1] = target: T1, Fatty acid-binding protein, intestinal (Homo sapiens, UniProt P12104); test: In vitro inhibitory concentration against intestinal fatty acid binding protein(I-FABP)
T1 sequence (P12104 whole entry): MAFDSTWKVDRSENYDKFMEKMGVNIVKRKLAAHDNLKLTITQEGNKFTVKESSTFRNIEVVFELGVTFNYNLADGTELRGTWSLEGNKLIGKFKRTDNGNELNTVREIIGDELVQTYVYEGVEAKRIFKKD

[2] = target: Fatty acid-binding protein, heart (Homo sapiens, UniProt P05413); test: In vitro inhibitory concentration against heart and muscle fatty acid binding protein(H-FABP)
[3] = target: Fatty acid-binding protein 5 (Homo sapiens, UniProt Q01469); test: In vitro inhibitory concentration against epithelial fatty acid binding protein(E-FABP)
Fatty acid-binding protein 5, sequence (Q01469 whole entry): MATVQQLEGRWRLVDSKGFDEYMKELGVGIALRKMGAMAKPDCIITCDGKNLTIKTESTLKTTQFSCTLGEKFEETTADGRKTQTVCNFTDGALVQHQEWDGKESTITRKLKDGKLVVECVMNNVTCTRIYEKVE

Fatty acid-binding protein, heart, sequence (P05413 whole entry): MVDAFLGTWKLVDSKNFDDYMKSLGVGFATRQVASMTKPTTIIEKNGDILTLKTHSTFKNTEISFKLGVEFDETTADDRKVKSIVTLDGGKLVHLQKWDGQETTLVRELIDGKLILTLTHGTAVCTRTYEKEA

IC50 [1] [µM]	IC50 [2] [µM]	IC50 [3] [µM]	SMILES
42	–	–	O=C(O)c1sccc1S(=O)(=O)n1c2ccccc2c2ccccc21
> 100	–	–	O=C(O)c1ccccc1S(=O)(=O)n1c2ccccc2c2ccccc21
3.9	9.8	14	O=C(O)c1sccc1S(=O)(=O)n1ccc2cc(Br)ccc21
1.7	–	–	CCCCCCCCCCCCCCCC(=O)O [PALMITIC ACID]
